Reference: publication PMC6017957, “Synthesis, Anti-Proliferative Activity Evaluation and 3D-QSAR Study of Naphthoquinone Derivatives as Potential Anti-Colorectal Cancer Agents” (Molecules : A Journal of Synthetic Chemistry and Natural …, 2018)
Where two headings read alike, the source gives them in different places.

Columns and labels:
[1] = test system: HT-29 colorectal cancer cells; experiment: MTT anti-proliferative assay against HT-29 cells; type: cell-based, human; conditions: for IC50: Homo sapiens; for Selectivity Index: SI = IC50Fibroblast/IC50HT-29cells; for Cytotoxic activity category against HT-29: classified by HT-29 IC50
Method: (§1) The toxicity of the thirty-six compounds was determined in vitro by means of the MTT assay. Doxorubicin, a drug widely used to treat different types of cancer, was employed as a positive control, whereas the solvent (DMSO) was used as negative control.
(§2) Test compounds were dissolved in DMSO to obtain stock solutions that were maintained as small aliquots at −20 °C. At time of drug addition, an aliquot was thawed and diluted to obtain the desired final maximum test concentration of 100 μM, with complete medium. The final percentage of DMSO in the wells was less than 1% (v/v). […] Anti-Proliferative Assay
(§3) Doxorubicin, a drug widely used to treat different types of cancer, was used as a positive control. After 48 h, the medium was removed and cells were incubated with MTT solution (0.25 mg/mL). Four hours later, the medium was carefully aspired and formazan crystals were dissolved in DMSO (100 μL). The OD550 was measured using a plate reader (Multiskan Go, Thermo Scientific, Waltham, MA, USA). […] The selectivity index (SI), was calculated as a ratio of IC50Fibroblast/IC50HT-29cells.
(§4) The results are expressed as the mean of triplicate measurements in at least two independent experiments.

fibroblasts PCS-201-012 = experiment: MTT cytotoxicity assay against normal dermal fibroblasts; type: cell-based; conditions: Fibroblast, value with 95% confidence interval, read-out: PCS-201-012 IC50 μM (95% CI)
Method: as §1, §2, §3, §4

[2] = HT-29, 48 h, MTT, 48 h, 0–100 µM, value with 95% confidence interval, read-out: HT-29 IC50 μM (95% CI)
[3] = HT-29, −logIC50 against HT-29, CoMFA training and test sets, read-out: pIC50 Experimental (converted)

With `O=C1c2ccccc2C(=O)c2occc21` [Compound 4j, Naphtho[2,3-b]furan-4,9-dione] the IC50 [1, 2] was 8.2 µM, the IC50 [1, 3] was 8.2 µM and the “Selectivity Index” value [1] was 1.01. For the same compound, the “Cytotoxic activity category against HT-29” value (from here on “Cytotoxic activity category”) [1] was “highly active”, the IC50 (fibroblasts PCS-201-012) was 8.28 µM and the melting point was 229.4 °C.

With `CC1=C(Cl)C(=O)c2ccccc2C1=O` [Compound 3c, 2-Chloro-3-methylnaphthalene-1,4-dione] the IC50 [1, 2] was 11 µM, the IC50 [1, 3] was 11 µM and the “Selectivity Index” value [1] was 0.90. It also gave an IC50 (fibroblasts PCS-201-012) of 9.92 µM and a melting point of 158 °C.

For `CC1(C)OC2=C(C(=O)C(=O)c3ccccc32)C1(C)C` [Compound 4s, 2,2,3,3-Tetramethyl-2,3-dihydronaphtho[1,2-b]furan-4,5-dione], the IC50 [1, 2] was 18.1 µM, the IC50 [1, 3] was 18.1 µM and the “Selectivity Index” value [1] was 1.10. The IC50 (fibroblasts PCS-201-012) was 19.9 µM and the melting point was 91 °C.

`Cc1c(C(C)C)[nH]c2c1C(=O)c1ccccc1C2=O` [Compound 2e, 3-Methyl-2-(propan-2-yl)-1H-benzo[f]indole-4,9-dione] gave an IC50 [1, 2] greater than 100 µM and a melting point of 245 to 248 °C.

In the case of `CCCCc1cc2c(o1)-c1ccccc1C(=O)C2=O` [Compound 4i, 2-Butylnaphtho[1,2-b]furan-4,5-dione], the IC50 [1, 2] is reported as 9.16 µM, the IC50 [1, 3] is reported as 9.16 µM and the “Selectivity Index” value [1] is reported as 0.42. For the same compound, the “Cytotoxic activity category” value [1] was “highly active”, the IC50 (fibroblasts PCS-201-012) was 3.86 µM and the melting point was 64 °C.

For `CCc1cc2c(o1)-c1ccccc1C(=O)C2=O` [Compound 4h, 2-Ethylnaphtho[1,2-b]furan-4,5-dione], the IC50 [1, 2] was 13.7 µM, the IC50 [1, 3] was 13.7 µM and the “Selectivity Index” value [1] was 0.27. The “Cytotoxic activity category” value [1] was “highly active”, the IC50 (fibroblasts PCS-201-012) was 3.68 µM and the melting point was 136 °C.

For `COC(=O)C1C2=C(OC1c1ccccc1)C(=O)c1ccccc1C2=O` (stereo not drawn) [Compound 4n, Methyl 4,9-Dioxo-2-phenyl-2,3,4,9-tetrahydronaphtho[2,3-b]furan-3-carboxylate], the IC50 [1, 2] was greater than 100 µM and the melting point was 167 °C.

`Cc1cc2c([nH]1)C(=O)c1ccccc1C2=O` [Compound 2b, 2-Methyl-1H-benzo[f]indole-4,9-dione] gave an IC50 [1, 2] greater than 100 µM and a melting point of 302 to 304 °C.

Work on `O=C1c2ccccc2C(=O)c2oc(-c3ccccc3)cc21` [Compound 4k, 2-Phenylnaphtho[2,3-b]furan-4,9-dione] yielded an IC50 [1, 2] greater than 10 µM and a melting point of 220 °C.

For `CCc1[nH]c2c(c1CC)C(=O)c1ccccc1C2=O` [Compound 2d, 2,3-Diethyl-1H-benzo[f]indole-4,9-dione], the IC50 [1, 2] was 68.7 µM, the IC50 [1, 3] was 68.7 µM and the “Selectivity Index” value [1] was 0.75. It also gave an IC50 (fibroblasts PCS-201-012) of 51.5 µM and a melting point of 205 to 209 °C.

`CCCC/C=C/C1=C(O)C(=O)c2ccccc2C1=O` [Compound 4c, 2-[(1E)-Hex-1-en-1-yl]-3-hydroxynaphthalene-1,4-dione] showed an IC50 [1, 2] greater than 100 µM and a melting point of 85 °C.

With `C=CC1(C)CC2=C(O1)c1ccccc1C(=O)C2=O` (stereo not drawn) [Compound 4t, 2-Ethenyl-2-methyl-2,3-dihydronaphtho[1,2-b]furan-4,5-dione] the IC50 [1, 2] was 88.1 µM, the “Selectivity Index” value [1] was 0.22 and the IC50 (fibroblasts PCS-201-012) was 19.7 µM. It also gave a melting point of 150 °C.

With `CCc1cc2c([nH]1)C(=O)c1ccccc1C2=O` [Compound 2c, 2-Ethyl-1H-benzo[f]indole-4,9-dione] the IC50 [1, 2] was 40.2 µM, the IC50 [1, 3] was 40.2 µM and the “Cytotoxic activity category” value [1] was “moderately active (moderately active (20 µM < IC50 ≤ 100 µM))”. The IC50 (fibroblasts PCS-201-012) was 79.4 µM and the melting point was 200 to 207 °C.

With `COC1(C(C)=O)CC2=C(O1)C(=O)c1ccccc1C2=O` (stereo not drawn) [Compound 4l, 2-Acetyl-2-methoxy-2,3-dihydronaphtho[2,3-b]furan-4,9-dione] the IC50 [1, 2] was 34.9 µM, the “Selectivity Index” value [1] was 0.37 and the IC50 (fibroblasts PCS-201-012) was 12.9 µM. For the same compound, the melting point was 145 °C.

Work on `C=C(C)C1(C)CC2=C(O1)C(=O)c1ccccc1C2=O` (stereo not drawn) [Compound 4o, 2-Methyl-2-(prop-1-en-2-yl)-2,3-dihydronaphtho[2,3-b]furan-4,9-dione] yielded an IC50 [1, 2] of 25.8 µM, an IC50 (fibroblasts PCS-201-012) of 47.9 µM and a melting point of 135 °C.

`O=C1c2ccccc2C(=O)c2[nH]ccc21` [Compound 2a, 1H-Benzo[f]indole-4,9-dione] gave an IC50 [1, 2] greater than 100 µM and a melting point of 281 to 283 °C.

`CCCc1[nH]c2c(c1C)C(=O)c1ccccc1C2=O` [Compound 2f, 3-Methyl-2-propyl-1H-benzo[f]indole-4,9-dione] gave an IC50 [1, 2] greater than 100 µM and a melting point of 266 to 270 °C.

With `CC/C=C/C1=C(O)C(=O)c2ccccc2C1=O` [Compound 4b, 2-[(1E)-But-1-en-1-yl]-3-hydroxynaphthalene-1,4-dione] the IC50 [1, 2] was greater than 100 µM and the melting point was 107 °C.

For `C=C(C)C1(C)CC2=C(O1)c1ccccc1C(=O)C2=O` (stereo not drawn) [Compound 4p, 2-Methyl-2-(prop-1-en-2-yl)-2,3-dihydronaphtho[1,2-b]furan-4,5-dione], the IC50 [1, 2] was 28.1 µM, the “Selectivity Index” value [1] was 0.15 and the IC50 (fibroblasts PCS-201-012) was 4.19 µM. For the same compound, the melting point was 147 °C.

With `Cc1cc2c(o1)-c1ccccc1C(=O)C2=O` [Compound 4g, 2-Methylnaphtho[1,2-b]furan-4,5-dione] the IC50 [1, 2] was 8.36 µM, the IC50 [1, 3] was 8.36 µM and the “Selectivity Index” value [1] was 0.23. For the same compound, the “Cytotoxic activity category” value [1] was “highly active”, the IC50 (fibroblasts PCS-201-012) was 1.93 µM and the melting point was 124 °C.
